Reference: patent US20070202206A1, “Morinda Citrifolia Leaf Juice And Leaf Extract Based Formulations” (priority 2005, published 2007)

Assays:
[1] = test system: Propionibacterium acnes (ATCC 6919); test: Microbial in vitro assay, Propionibacterium acnes; type: cell-based; details: Microbial In Vitro Assays, Anaerobes
[2] = test system: human epidermoid carcinoma cell line-A431; test: cells; type: cell-based; details: for Percent Grown: A431, 72-hour exposure
Procedure: In this example, assays were performed to detect changes in cell proliferation based on the ability of viable cells to cause alamarBlue to change from non-fluorescent blue to a reduced, fluorescent red form. With the results obtained from the alamarBlue reaction, cell proliferation can be quantified and metabolic activity of viable cells can be examined. Test compounds including Morinda citrifolia leaf extract, leaf juice, and roast leaf were tested for their effects on […]
Morinda citrifolia leaf extract, leaf juice, and roast leaf were provided by Tahitian Noni International, Inc. for in vitro anti-tumor studies. The Morinda citrifolia compounds were dissolved in sterile distilled water and then diluted with sterile distilled water to obtain initial working solutions of 10000, 1000, 100, 10, and 1 μg/ml for the leaf extract and roast leaf, as well as 100, 10, 1, 0.1 and 0.01% for the leaf juice.
The tumor cell line, A431 (human epidermoid carcinoma), obtained from American Type Culture Collection (ATCC CRL-1555), was incubated in an air atmosphere of 5% CO2 at 37° C. The culture medium was used with Dulbecco's Modified Eagle's medium, 90%; Fetal Bovine Serum, 10% and supplemented with 1% Antibiotic-Antimycotic.
The anti-proliferation for the test substances was evaluated. Aliquots of 100 μl of cell suspension (about 3×10^3/well) were placed in 96-well microtiter plates in an atmosphere of 5% CO2 at 37° C. […] At the end of incubation, 20 μl of 90% alamarBlue reagent was added to each well for another 6-hour incubation before detection of cell viability by fluorescent intensity. Fluorescent intensity was measured using a Spectrafluor Plus plate reader with excitation at 530 nm and demission at 590 nm.
IC50, TGI, and LC50 values were then determined. […] TGI (Total Growth Inhibition) is the test compound concentration where the number or mass of treated cells at the end of the experiment was equal to that at time0. […] The measured results were calculated by the following formula: PG(%)=100×(Mean Ftest−Mean Ftime0)/(Mean Fctrl−Mean Ftime0)
If (Mean Ftest−Mean Ftime0)<0, then PG(%)−100×(Mean Ftest−Mean Ftime0)/(Mean Ftime0−Mean Fblank)
Where: • PG=percent growth • Mean Ftime0=The average of 2 measured fluorescent intensities of reduced alamarBlue at the time just before exposure of cells to the test substance. • Mean Ftest=The average of 2 measured fluorescent intensities of alamarBlue after 72-hour exposure of cells to the test substance. • Mean Fctrl, =The average of 2 measured fluorescent intensities of alamarBlue after 72-hour incubation without the test substance. • Mean Fblank=The average of 2 measured fluorescent intensities of alamarBlue in medium without cells after 72-hour incubation.
A decrease of 50% or more (≧50%) in fluorescent intensity relative to the vehicle-treated control indicated significant cell growth inhibition, cytostatic or cytotoxic activity, and a semi-quantitative IC50, TGI, and LC50 were then determined by nonlinear regression using GraphPad Prism (GraphPad Software, USA).

Compound: CC1(C)S[C@@H]2[C@H](NC(=O)[C@H](N)c3ccccc3)C(=O)N2[C@H]1C(=O)O [Ampicillin]
- Reference Compound Data, Concurrent [1]: 0.1 µg/mL

Compound: CO[C@@]12[C@H](COC(N)=O)C3=C(C(=O)C(C)=C(N)C3=O)N1C[C@@H]1N[C@@H]12 [Mitomycin]
- Percent Grown ([2]; concentration 0.001 μM): 101%
- Percent Grown ([2]; concentration 0.01 μM): 82%
- Percent Grown ([2]; concentration 0.1 μM): 7%
- Percent Grown ([2]; concentration 1 μM): 35%
- Percent Grown ([2]; concentration 10 μM): 97%
- IC50 ([2]; Homo sapiens, A-431, Tumor, Skin (A431), semi-quantitative, nonlinear regression, read-out: IC50 (50% Inhibition Concentration)): 35 nM
- TGI (Total Growth Inhibition) ([2]; Tumor, Skin (A431), semi-quantitative, nonlinear regression): 190 nM
